The values below come from publication PMC11413503, “SCR‐7952, a highly selective MAT2A inhibitor, demonstrates synergistic antitumor activities in combination with the S‐adenosylmethionine‐competitive or the methylthioadenosine‐cooperative protein arginine methyltransferase 5 inhibitors in methylthioadenosine phosphorylase‐deleted tumors” (MedComm, 2024).

One assay deals with HCT116 MTAP−/− cells. Kind of assay: Intracellular SAM inhibition assay. The class given is cell-based. The following applies: Homo sapiens, HCT-116; HCT116 MTAP−/− cells, 6 h treatment; read-out: IC50, cellular SAM levels. As to the method:
MAT2A inhibition in the cellular environment was monitored by measurement of the abundance of its product SAM in HCT116 MTAP ^−/− cells. HCT116 MTAP ^−/− cells were plated in 96‐well cell culture plates at 50,000 cells per well and allowed to attach overnight at 37°C in 5% CO2. Compounds were added in a dose–response format to generate a 10‐point dose–response curve. Doses were started at a 10 µM top concentration with 1:5 serial dilution. After 6 h of incubation, the medium was removed and cells were extracted with 50% methanol containing 1 M acetic acid for SAM metabolite measurement by UPLC‐MS/MS.
The standard SAM solution was prepared in a surrogate matrix of 50% methanol containing 1 M acetic acid with a concentration range of 3–1000 ng/mL. The quality control sample was prepared in the same surrogate matrix. SAM‐d 3 was used as the internal standard (IS). A Waters UPLC system coupled with a SCIEX Triple Quad™ 6500^+ mass spectrometer […] was used to analyze the samples. Samples were separated on an ACQUITY UPLC® BEH amide column (2.1 × 50 mm, 1.7 µm). The mobile phase consisted of 5% acetonitrile containing 5 mM NH4OAc and 1% (v/v) formic acid (A) and 95% acetonitrile containing 5 mM NH4OAc and 1% (v/v) formic acid (B). […] SAM and SAM‐d 3 were detected with multiple‐reaction monitoring of a mass transition pair at m/z 399.2/250.2 and […], respectively.

Another assay has as its system A549. Kind of assay: Proliferation assay (CellTiter-Glo). The class given is cell-based. The following applies: Homo sapiens, A549, 144 h; MTAP-deleted, 6-day; read-out: IC50, anti-proliferation A549. As to the method: (§1) HCT116 colon carcinoma parental (WT) cells with MTAP ^−/− isogenic clone were established by KYinno Biotechnology Co., Ltd. (Beijing, China). A549, MIA PaCa‐2, and WI‐38 cell lines were obtained from ATCC. NCI‐H838 was obtained from Cobioer Biosciences. HCT116 WT and KO MTAP cells were cultured in McCoy's 5A media containing 10% FBS. A549 cells were cultured in DMEM media containing 10% FBS. MIA PaCa‐2 cells were cultured in DMEM media containing 10% FBS and 2.5% horse serum. NCI‐H838 cells were cultured in PRMI 1640 media containing 10% FBS. WI‐38 cells were cultured in EMEM media containing 10% FBS.
(§2) Cells were plated in 96‐well cell culture plates and allowed to attach overnight at 37°C in 5% CO2. Compounds diluted in DMSO were added to cells in a dose–response format for 6 days. The final concentration of DMSO was 0.1% in media. Cell proliferation was measured using CellTiter‐Glo Cell Viability Assay (Promega). The IC50 values were calculated using the GraphPad Prism 9. Drug combination effects were analyzed using Combenefit software.[45]
On the technique in general: In ATP-based viability assays light output follows the ATP content of the culture.

The next assay has as its system HCT116 WT cells. Kind of assay: Proliferation assay (CellTiter-Glo). The class given is cell-based. The note with it: Homo sapiens, HCT-116, 144 h; 6-day treatment; read-out: IC50, anti-proliferation HCT116 WT. On the procedure: as §1, §2
Another assay has as its system MIA PaCa-2. Kind of assay: Proliferation assay (CellTiter-Glo). The class given is cell-based. The following applies: Homo sapiens, MIA PaCa-2, 144 h; MTAP-deleted, 6-day; read-out: IC50, anti-proliferation MIA PaCa-2. As to the method: as §1, §2
A further assay has as its system NCI-H838. Kind of assay: Proliferation assay (CellTiter-Glo). The class given is cell-based. The following applies: Homo sapiens, NCI-H838, 144 h; MTAP-deleted, 6-day; read-out: IC50, anti-proliferation NCI-H838. As to the method: as §1, §2
Assay [1] concerns HCT116 MTAP−/− subcutaneous xenograft. Kind of assay: Xenograft efficacy study, monotherapy. The class given is in vivo, mice. As to the method: An efficacy study in an HCT116 MTAP ^−/− subcutaneous xenograft mouse model was performed to evaluate the antitumor effect of SCR‐7952, with once daily (q.d.) oral dosing of 0.25, 0.5, 1.0, or 3.0 mg/kg, respectively.
Nu/Nu female mice (6–12 weeks old; Beijing Vital River Laboratory Animal Technology Co., Ltd.) were used for in vivo xenograft studies. All experimental procedures involving animals and their care were in accordance with the State Council Regulations for Laboratory Animal Management (Enacted in 1988) and approved by the Institutional Animal Care and Use Committee of Jiangsu Simcere Pharmaceutical Co., Ltd. (IACUC; Approval No. AP‐056).
Subcutaneous injections of HCT116 MTAP ^−/− cells were performed (5 × 10^6 cells in 100 µL) into Nu/Nu female mice. Mice were observed daily for the development of tumors. Six days after tumor implantation, mice were randomly distributed into different groups. SCR‐7952, AG‐270, JNJ‐64619178, or vehicle (water with 5% N‐methylpyrrolidone and 10% solutol HS‐15) were daily administrated by oral gavage. Tumor volumes and body weights were recorded three times per week. Tumor volumes were measured in two dimensions using a caliper, and the volume was expressed in mm^3 using the formula: V = (L × W × W)/2, where V is tumor volume, L is tumor length (the longest tumor dimension), and W is tumor width (perpendicular to L). The tumor growth inhibition rate (TGI%) of each dosing group was calculated according to the following formula: %TGI = (1 − (V t(treatment group) − V 0(treatment group))/(V t(vehicle group) − V 0(vehicle group))) × 100%, where V t is average tumor volume of a dosing group on a specific day, V 0 is average tumor volume of a dosing group on the initial day. At the end of the study, plasma and tumor tissues were collected and stored at −80°C for further measurement.

For a further assay, the system named is SDMA. Kind of assay: Tumor SDMA levels in combination xenograft study. The class given is in vivo, mice. The following applies: SCR-7952 0.3 mg/kg alone.
In a further assay the target is AChE (Homo sapiens, UniProt P22303). Kind of assay: Mini-profiling panel, non-kinase enzyme. The class given is biochemical. The following applies: Non-Kinase Enzymes; read-out: AChE Inhibitor IC50.
Sequence of AChE (P22303 32-614): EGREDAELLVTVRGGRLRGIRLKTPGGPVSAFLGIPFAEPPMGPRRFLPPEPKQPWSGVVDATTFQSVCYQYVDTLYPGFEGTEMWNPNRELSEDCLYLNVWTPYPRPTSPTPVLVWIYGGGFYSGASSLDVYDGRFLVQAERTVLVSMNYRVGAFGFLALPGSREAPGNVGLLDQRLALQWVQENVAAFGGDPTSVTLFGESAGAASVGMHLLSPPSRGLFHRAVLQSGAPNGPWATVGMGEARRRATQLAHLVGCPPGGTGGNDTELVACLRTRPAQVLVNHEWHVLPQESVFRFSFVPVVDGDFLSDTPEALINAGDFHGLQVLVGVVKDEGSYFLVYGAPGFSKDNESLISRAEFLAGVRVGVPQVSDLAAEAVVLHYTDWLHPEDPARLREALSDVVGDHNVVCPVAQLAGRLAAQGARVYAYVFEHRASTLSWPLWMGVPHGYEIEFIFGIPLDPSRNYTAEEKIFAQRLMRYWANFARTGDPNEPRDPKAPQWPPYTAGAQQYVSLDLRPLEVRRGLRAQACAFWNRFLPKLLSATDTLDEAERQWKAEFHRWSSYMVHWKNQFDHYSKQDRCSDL
In another assay the target is COX1 (Homo sapiens, UniProt P23219). Kind of assay: Mini-profiling panel, non-kinase enzyme. The class given is biochemical. The following applies: Non-Kinase Enzymes; read-out: COX1 Inhibitor IC50.
Sequence of COX1 (P23219 24-599): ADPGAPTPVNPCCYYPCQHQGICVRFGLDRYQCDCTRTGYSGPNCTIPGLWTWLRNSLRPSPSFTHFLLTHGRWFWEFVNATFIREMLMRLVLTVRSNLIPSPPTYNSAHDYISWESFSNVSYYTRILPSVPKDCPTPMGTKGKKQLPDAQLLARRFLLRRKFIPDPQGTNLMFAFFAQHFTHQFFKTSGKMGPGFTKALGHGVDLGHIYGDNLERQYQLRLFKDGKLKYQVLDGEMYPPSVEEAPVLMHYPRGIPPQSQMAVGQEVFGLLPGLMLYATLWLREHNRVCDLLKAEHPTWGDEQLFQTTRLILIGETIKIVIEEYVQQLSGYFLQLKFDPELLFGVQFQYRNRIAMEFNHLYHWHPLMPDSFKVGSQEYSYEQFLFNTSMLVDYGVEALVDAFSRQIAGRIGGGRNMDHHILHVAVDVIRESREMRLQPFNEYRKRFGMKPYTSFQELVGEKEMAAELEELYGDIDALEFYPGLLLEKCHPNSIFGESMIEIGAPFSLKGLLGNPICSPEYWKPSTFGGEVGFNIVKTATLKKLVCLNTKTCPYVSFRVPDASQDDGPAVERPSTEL
The next assay concerns the target MAOA (Homo sapiens, UniProt P21397). Kind of assay: Mini-profiling panel, non-kinase enzyme. The class given is biochemical. The note with it: Non-Kinase Enzymes; read-out: MAOA Inhibitor IC50.

Where only a bound is given, the exact number is not on record here.

Sequence of MAOA (P21397 whole entry, species assumed): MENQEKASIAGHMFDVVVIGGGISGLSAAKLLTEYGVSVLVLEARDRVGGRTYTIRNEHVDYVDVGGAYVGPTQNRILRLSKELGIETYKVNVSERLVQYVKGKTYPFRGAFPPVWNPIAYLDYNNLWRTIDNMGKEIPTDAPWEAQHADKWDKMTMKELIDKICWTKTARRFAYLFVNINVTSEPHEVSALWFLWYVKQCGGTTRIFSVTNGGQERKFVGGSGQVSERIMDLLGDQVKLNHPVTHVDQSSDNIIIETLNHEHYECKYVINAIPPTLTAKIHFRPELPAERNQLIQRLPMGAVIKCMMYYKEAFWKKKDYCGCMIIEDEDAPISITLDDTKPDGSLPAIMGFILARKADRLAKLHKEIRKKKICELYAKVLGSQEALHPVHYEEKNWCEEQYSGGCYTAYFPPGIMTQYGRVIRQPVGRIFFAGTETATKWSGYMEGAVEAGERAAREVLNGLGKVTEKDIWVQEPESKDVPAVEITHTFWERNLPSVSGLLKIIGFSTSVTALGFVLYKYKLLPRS

For `Cn1cnc2c(=O)n(-c3cccnc3C3CC3)c3cc(Cl)ccc3c21` [SCR‐7952, 7‐chloro‐5‐(2‐cyclopropylpyridin‐3‐yl)‐1‐methyl‐1,5‐dihydro‐4H‐imidazo[4,5‐c]quinolin‐4‐one], the IC50 is 1.9 nM in the assay on HCT116 MTAP−/− cells; 123 nM in the assay on A549; 488 nM with HCT116 WT cells; 19.7 nM in the assay on MIA PaCa-2; 4.3 nM with NCI-H838; > 10000 nM on AChE. Moreover, the IC50 at COX1 and at MAOA was > 10000 nM throughout. In addition, the results for the TGI in assay [1] (SCR-7952 0.5 mg/kg oral q.d.), in [1] (SCR-7952 1 mg/kg oral q.d.) and in [1] (SCR-7952 3.0 mg/kg oral q.d.) were 60.0%, 62.7% and 82.9%, respectively. The “tumor SDMA levels” value with SDMA is reported as “remarkable reduction”.

As a reminder, the TGI is the reduction of tumour growth relative to the control group. The low end stands for a weaker effect on the tumour, the high end for a stronger effect on the tumour.
